Data taken from patent US20240150365A1 (Hotspot Therapeutics, Inc., priority 2022, published 2024).

Assays:
MALT1 = target: T1, MALT1 (Homo sapiens, UniProt Q9UDY8); assay: MALT-1 Fluorogenic Peptide Cleavage Assay (MALT1 inhibition assay); type: biochemical; conditions: Avi-tagged FL MALT-1, Ac-LRSR-AMC peptide substrate, 30 min pre-incubation, 90 min reaction
T1 construct: Avi-tagged FL MALT-1 (Pharmaron, stored at −70° C.); Avi tag
T1 sequence (Q9UDY8 1-824): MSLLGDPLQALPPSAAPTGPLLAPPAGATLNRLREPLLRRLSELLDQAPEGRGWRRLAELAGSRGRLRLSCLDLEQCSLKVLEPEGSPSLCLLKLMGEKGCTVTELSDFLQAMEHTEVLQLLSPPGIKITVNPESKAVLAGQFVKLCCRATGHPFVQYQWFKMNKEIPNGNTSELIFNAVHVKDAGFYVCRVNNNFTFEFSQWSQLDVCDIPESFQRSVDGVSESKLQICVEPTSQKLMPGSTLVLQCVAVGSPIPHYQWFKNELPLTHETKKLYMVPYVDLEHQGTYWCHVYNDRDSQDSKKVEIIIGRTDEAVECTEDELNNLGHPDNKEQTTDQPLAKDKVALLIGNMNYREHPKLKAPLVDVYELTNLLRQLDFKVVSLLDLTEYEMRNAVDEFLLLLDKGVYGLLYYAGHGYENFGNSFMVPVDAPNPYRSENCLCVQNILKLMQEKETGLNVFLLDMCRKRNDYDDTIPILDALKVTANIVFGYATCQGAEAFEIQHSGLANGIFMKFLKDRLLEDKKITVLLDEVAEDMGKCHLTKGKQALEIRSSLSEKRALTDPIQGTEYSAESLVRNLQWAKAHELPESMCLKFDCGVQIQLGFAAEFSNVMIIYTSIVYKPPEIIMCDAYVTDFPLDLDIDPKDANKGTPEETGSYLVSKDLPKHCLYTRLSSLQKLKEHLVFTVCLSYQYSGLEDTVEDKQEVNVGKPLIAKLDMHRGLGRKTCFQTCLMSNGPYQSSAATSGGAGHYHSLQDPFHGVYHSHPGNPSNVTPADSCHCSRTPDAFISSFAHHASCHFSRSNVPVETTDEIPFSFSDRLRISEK
Outline: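 IC50 from sigmoidal fits of % inhibition, with fluorescence (ex 342, em 441 nm) from AMC released from the quenched LRSR peptide after 90 min at room temperature. Full-length Avi-tagged MALT1 saw compound for 30 min first; final DMSO 2%.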

NF-kB = NF-kB reporter assay in Jurkat cells stimulated with aCD3/aCD28/PMA; type: cell-based; conditions: Homo sapiens, Jurkat, Jurkat cells, 1 hr compound incubation, aCD3/aCD28/PMA stimulation 4 hr, One-Glo readout; read-out: NF-kB Reporter Assay IC50
Outline: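 Stimulation used final aCD3 5 μg/mL, aCD28 5 μg/mL and PMA 0.03 μg/mL for 4 hr at 37° C, after 1 hr compound pretreatment of 25,000 serum-starved Jurkat cells per well. One-Glo luminescence gave IC50 values.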

Compound	IC50 (MALT1) [nM]	IC50 (NF-kB) [nM]
Cc1ncc(-c2ccc(S(=O)(=O)Nc3cccc4cnn(C)c34)cn2)cn1 [Example I-135, N-(1-Methyl-1H-Indazol-7-yl)-6-(2-Methylpyrimidin-5-yl)Pyridine-3-Sulfonamide]	> 2500	400 to 1000
Cn1ncc2cccc(NS(=O)(=O)c3ccc(-c4ccc(O)nc4)nc3)c21 [Example I-136, 6′-Hydroxy-N-(1-Methyl-1H-Indazol-7-yl)-[2,3′-Bipyridine]-5-Sulfonamide]	> 2500	> 2500
Cn1ncc2cccc(NS(=O)(=O)c3ccc(-c4cncc(S(C)(=O)=O)c4)nc3)c21 [Example I-137, N-(1-Methyl-1H-Indazol-7-yl)-5′-(Methylsulfonyl)-[2,3′-Bipyridine]-5-Sulfonamide]	> 2500	> 2500
Cn1ncc2cccc(NS(=O)(=O)c3ccc(-c4ccn(C(F)F)n4)nc3)c21 [Example I-138, 6-(1-(Difluoromethyl)-1H-Pyrazol-3-yl)-N-(1-Methyl-1H-Indazol-7-yl)Pyridine-3-Sulfonamide]	> 2500	< 400
COc1ncccc1-c1ccc(S(=O)(=O)Nc2cccc3cnn(C)c23)cn1 [Example I-139, 2′-Methoxy-N-(1-Methyl-1H-Indazol-7-yl)-[2,3′-Bipyridine]-5-Sulfonamide]	> 2500	< 400
COc1ccc2cnn(C)c2c1NS(=O)(=O)c1ccc(-n2nnc(C)n2)nc1 [Example I-144, N-(6-Methoxy-1-Methyl-1H-Indazol-7-yl)-6-(5-Methyl-2H-Tetrazol-2-yl)Pyridine-3-Sulfonamide]	> 2500	> 2500
Cn1ncc2cccc(NS(=O)(=O)c3ccc(-c4cnn(CCO)c4)nc3)c21 [Example I-146, 6-(1-(2-Hydroxyethyl)-1H-Pyrazol-4-yl)-N-(1-Methyl-1H-Indazol-7-yl)Pyridine-3-Sulfonamide]	> 2500	> 2500
COc1ccc2cnn(C)c2c1NS(=O)(=O)c1ccc(-n2nccc2C2CC2)nc1 [Example I-147, 6-(5-Cyclopropyl-1H-Pyrazol-1-yl)-N-(6-Methoxy-1-Methyl-1H-Indazol-7-yl)Pyridine-3-Sulfonamide]	> 2500	400 to 1000
CCC(=O)c1cnn(-c2ccc(S(=O)(=O)Nc3cccc4cnn(C)c34)cn2)c1 [Example I-152, N-(1-Methyl-1H-Indazol-7-yl)-6-(4-Propionyl-1H-Pyrazol-1-yl)Pyridine-3-Sulfonamide]	> 2500	< 400
COc1ccc2cnn(C)c2c1NS(=O)(=O)c1ccc(-n2ccc(C3CC3)n2)nc1 [Example I-153, 6-(3-Cyclopropyl-1H-Pyrazol-1-yl)-N-(6-Methoxy-1-Methyl-1H-Indazol-7-yl)Pyridine-3-Sulfonamide]	< 400	< 400
Cn1ncc2cccc(NS(=O)(=O)c3ccc(-c4cc[nH]c(=O)c4)nc3)c21 [Example I-154, N-(1-Methyl-1H-Indazol-7-yl)-2′-Oxo-1′,2′-Dihydro-[2,4′-Bipyridine]-5-Sulfonamide]	> 2500	> 2500
Cc1[nH]ncc1-c1ccc(S(=O)(=O)Nc2cccc3cnn(C)c23)cn1 [Example I-155, N-(1-Methyl-1H-Indazol-7-yl)-6-(5-Methyl-1H-Pyrazol-4-yl)Pyridine-3-Sulfonamide]	> 2500	< 400
COc1ncc2cnn(C)c2c1NS(=O)(=O)c1ccc(-n2ccc(C(F)(F)F)n2)nc1 [Example I-156, N-(6-Methoxy-1-Methyl-1H-Pyrazolo[4,3-C]Pyridin-7-yl)-6-(3-(Trifluoromethyl)-1H-Pyrazol-1-yl)Pyridine-3-Sulfonamide]	< 400	< 400
COc1ccc2cnn(C)c2c1NS(=O)(=O)c1ccc(-n2cc([N+](=O)[O-])cn2)nc1 [Example I-157, N-(6-Methoxy-1-Methyl-1H-Indazol-7-yl)-6-(4-Nitro-1H-Pyrazol-1-yl)Pyridine-3-Sulfonamide]	< 400	< 400
Cn1c(=O)c2cccc(NS(=O)(=O)c3ccc(-n4cc(C(F)(F)F)cn4)nc3)c2n1C [Example I-158, N-(1,2-Dimethyl-3-Oxo-2,3-Dihydro-1H-Indazol-7-yl)-6-(4-(Trifluoromethyl)-1H-Pyrazol-1-yl)Pyridine-3-Sulfonamide]	> 2500	> 2500
Cn1ncc2ccc(O)c(NS(=O)(=O)c3ccc(-n4cc(C(F)(F)F)cn4)nc3)c21 [Example I-159, N-(6-Hydroxy-1-Methyl-1H-Indazol-7-yl)-6-(4-(Trifluoromethyl)-1H-Pyrazol-1-yl)Pyridine-3-Sulfonamide]	< 400	< 400
COc1ccc2cnn(C)c2c1NS(=O)(=O)c1ccc(-n2ccn(C)c2=O)nc1 [Example I-160, N-(6-Methoxy-1-Methyl-1H-Indazol-7-yl)-6-(3-Methyl-2-Oxo-2,3-Dihydro-1H-Imidazol-1-yl)Pyridine-3-Sulfonamide]	1000 to 2500	< 400

The remaining lines, values ahead:

IC50 (MALT1) [nM]	IC50 (NF-kB) [nM]	Compound
< 400	< 400	COc1ccc2cnn(C)c2c1NS(=O)(=O)c1ccc(-n2nc(C)c(C)c2C)nc1 [Example I-140, N-(6-Methoxy-1-Methyl-1H-Indazol-7-yl)-6-(3,4,5-Trimethyl-1H-Pyrazol-1-yl)Pyridine-3-Sulfonamide]
< 400	< 400	COc1ccc2cnn(C)c2c1NS(=O)(=O)c1ccc(-n2nc(C)c(Cl)c2C)nc1 [Example I-141, 6-(4-Chloro-3,5-Dimethyl-1H-Pyrazol-1-yl)-N-(6-Methoxy-1-Methyl-1H-Indazol-7-yl)Pyridine-3-Sulfonamide]
< 400	< 400	COc1ccc2cnn(C)c2c1NS(=O)(=O)c1ccc(-n2nc(C)cc2C)nc1 [Example I-142, 6-(3,5-Dimethyl-1H-Pyrazol-1-yl)-N-(6-Methoxy-1-Methyl-1H-Indazol-7-yl)Pyridine-3-Sulfonamide]
< 400	< 400	Cn1ccc2cccc(NS(=O)(=O)c3ccc(-c4cc(C(F)(F)F)n[nH]4)nc3)c21 [Example I-143, N-(1-Methyl-1H-Indol-7-yl)-6-(5-(Trifluoromethyl)-1H-Pyrazol-3-yl)Pyridine-3-Sulfonamide]
< 400	< 400	COc1ccc2cnn(C)c2c1NS(=O)(=O)c1ccc(-n2ncc(C)c2C)nc1 [Example I-148, 6-(4,5-Dimethyl-1H-Pyrazol-1-yl)-N-(6-Methoxy-1-Methyl-1H-Indazol-7-yl)Pyridine-3-Sulfonamide]
< 400	< 400	COc1ccc2cnn(C)c2c1NS(=O)(=O)c1ccc(-c2cnc(C)s2)nc1 [Example I-149, N-(6-Methoxy-1-Methyl-1H-Indazol-7-yl)-6-(2-Methylthiazol-5-yl)Pyridine-3-Sulfonamide]
< 400	< 400	COc1ccc2cnn(C)c2c1NS(=O)(=O)c1ccc(-n2cc(F)cn2)nc1 [Example I-150, 6-(4-Fluoro-1H-Pyrazol-1-yl)-N-(6-Methoxy-1-Methyl-1H-Indazol-7-yl)Pyridine-3-Sulfonamide]
< 400	< 400	COc1ccc2cnn(C)c2c1NS(=O)(=O)c1ccc(-n2nccc2OC)nc1 [Example I-151, N-(6-Methoxy-1-Methyl-1H-Indazol-7-yl)-6-(5-Methoxy-1H-Pyrazol-1-yl)Pyridine-3-Sulfonamide]
